Paper PMC5688144, “Assay interference and off-target liabilities of reported histone acetyltransferase inhibitors” (Nature Communications, 2017)
Read-outs that look alike come from different tables or passages of the source.

Tests used:
PCAF = biological target: T1, PCAF (Homo sapiens, UniProt Q92831); conditions: cited from earlier work
T1 construct: Reaction Biology Corporation (assays run by this contract lab)

p300/CBP = conditions: original report; 27 (Supplementary References); cited from earlier work
Absorbance spectra = assay type: physicochemical; conditions: for Absorption max (nm) / Absorbance counter-screen: 25 mM sodium phosphate, pH 7.0; for Absorbance counter-screen: 300-750 nm; for Molar absorptivity: at absorption max
Procedure, shortened: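 Spectra from 300 to 750 nm were recorded at 100, 50 and 10 μM final compound in 25 mM sodium phosphate pH 7.0 with 2.0% DMSO, after 10 min at RT, read at 25 °C. Significant absorbance meant molar absorptivity above 2000 M^−1 cm^−1 at wavelengths above 300 nm.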

GCN5 = conditions: cited from earlier work
[1] = UPLC-MS gross compound stability in assay buffer; conditions: 25 mM sodium phosphate, pH 7.0, 30 °C, no GSH or CoA
Protocol: Select compounds were incubated up to 24 h for additional stability analyses. Chromatograms and mass spectra were qualitatively analyzed for the formation of new peaks and/or loss of parent peaks.

[2] = Autofluorescence counter-screen; assay type: physicochemical; conditions: for Fluorescence counter-screen: autofluorescence at eight fluorophore settings, 32 nM-100 μM compound
Protocol: Selected test compounds were assessed for autofluorescence using an adaption of published procedures. […] Final concentration of DMSO was constant at 1.0% (v/v). Compounds and fluorophore standards were transferred as 10 mM DMSO stock solutions to 384-well black polystyrene microplates via Echo 550 dispenser. The plate arrangement was purposefully designed to minimize optical crosstalk by fluorophore standards. All measurements were performed in ALARM NMR buffer (25 mM sodium phosphate, pH 7.0) at 25 °C. Aliquots of 20 μL buffer were dispensed into microplate wells via ThermoFisher Multidrop dispenser. Compounds were shaken for 1 min on a plate shaker, centrifuged briefly for 1 min at 1000×g, then allowed to incubate at RT in buffer for 10 min before measuring fluorescence intensity on a SpectraMax M3 plate reader under reduced lighting. […] Bandwidth filters were set to default mode. Fluorescence intensity was measured for each test compound using each of the eight fluorophore standard settings. Fluorophores present on each plate were then used to construct normalized fluorescence dose-responses (“fluorophore-equivalent concentrations”, FEC). Fluorescence intensity for each test compound was converted to the appropriate FEC.

five tested HATs = assay: HAT selectivity panel with DTT (Reaction Biology); assay type: biochemical; conditions: 10 μM compound; DTT in reaction buffer
Protocol: Selectivity profiles vs. HATs, HDACs, SIRTs, HMTs, proteases, kinases, and phosphatases were performed by Reaction Biology Corporation (Malvern, PA; Fig. 3 and Supplementary Fig. 3). Percent activity was normalized to DMSO-only controls. Reference control compounds were included in each assay.
Relevant reaction procedures for each target class are briefly summarized (see reactionbiology.com for additional details). HATs: reaction buffer 50 mM Tris–HCl, pH 8.0, 50 mM NaCl, 0.1 mM EDTA, ± 1 mM DTT, 1 mM PMSF, 1% DMSO; substrate [^3H]-acetyl-CoA; reaction time 1 h; end-point measurement. HDACs: reaction buffer 50 mM Tris–HCl, pH 8.0, 137 mM NaCl, 2.7 mM KCl, 1 mM MgCl2, 1 mg mL^−1 BSA, 1% DMSO; fluorogenic substrate p53 residues 379–382 (RHKK(Ac)-AMC) (HDAC1/2/3/6/10), fluorogenic substrate p53 residues 379–382 (RHK(Ac)K(Ac)AMC) (HDAC8); fluorogenic substrate trifluoroacetyl lysine (HDAC4/5/7/9/11); pre-incubation included; reaction time 1–2 h; trichostatin A or TMP269 quencher; fluorescent readout λexcite = 360 nm, λemission = 460 nm; end-point measurement. SIRTs: reaction buffer 50 mM Tris–HCl, pH 8.0, 137 mM NaCl, 2.7 mM KCl, 1 mM MgCl2, 1 mg mL^−1 BSA, 1% DMSO; fluorogenic substrate p53 residues 379–382 (RHKK(Ac)-AMC) (SIRT1/2/3); fluorogenic substrate Ac-Lys(Succ)-AMC (SIRT5); substrate: 500 µM NAD^+; reaction time 2 h; nicotinamide quencher; fluorescent readout λexcite = 360 nm, λemission = 460 nm; end-point measurement (1.5 h development). HMTs: reaction buffer 50 mM Tris–HCl, pH 8.0, 0.01% Brij35, 1 mM EDTA, 1 mM DTT, 1 mM PMSF, 1% DMSO (EZH2); reaction buffer 50 mM Tris–HCl, pH 7.5, 5 mM EDTA, 0.01% Brij35, 5 mM DTT, 0.1 mM PMSF, 5% glycerol, 1% DMSO; 50 mM Tris–HCl, pH 8.5, 5 mM MgCl2, 50 mM NaCl, 0.01 Brij35, 1 mM DTT, 1% DMSO (G9a); methyl donor 1 μM S-Adenosyl-L-[methyl-^3H]-methionine; substrate 5 μM histone proteins or 0.05 mg mL^−1 nucleosomes; pre-incubation time 10–15 min; reaction time 0.5–1 h; end-point measurement. Caspases: reaction buffer 50 mM HEPES, pH 7.4, 1 M citrate, 100 mM NaCl, 0.01% CHAPS, 0.1 mM EDTA, 10 mM DTT; fluorogenic peptide substrate; pre-incubation time 10 min; reaction time 2 h; time-course measurement. Kinases: reaction buffer 20 mM HEPES, pH 7.5, 10 mM MgCl2, 1 mM EGTA, 0.02% Brij35, 0.02 mg mL^−1 BSA, 0.1 mM Na3VO4, 2 mM DTT, 1% DMSO; substrate [^33P]-ATP; reaction time 2 h; end-point measurement.

CBP = conditions: cited from earlier work; for IC50: original report, 22 (Supplementary References)
Tip60 = conditions: cited from earlier work; for % inhibition, Tip60: @ 100 µM, 20 (Supplementary References)
[3] = @ 10 µM, ref 5 (Supplementary References)
[4] = @ 5 µM, ref 16 (Supplementary References)
[5] = original report, 27 (Supplementary References)

T1 sequence (Q92831 whole entry, species assumed): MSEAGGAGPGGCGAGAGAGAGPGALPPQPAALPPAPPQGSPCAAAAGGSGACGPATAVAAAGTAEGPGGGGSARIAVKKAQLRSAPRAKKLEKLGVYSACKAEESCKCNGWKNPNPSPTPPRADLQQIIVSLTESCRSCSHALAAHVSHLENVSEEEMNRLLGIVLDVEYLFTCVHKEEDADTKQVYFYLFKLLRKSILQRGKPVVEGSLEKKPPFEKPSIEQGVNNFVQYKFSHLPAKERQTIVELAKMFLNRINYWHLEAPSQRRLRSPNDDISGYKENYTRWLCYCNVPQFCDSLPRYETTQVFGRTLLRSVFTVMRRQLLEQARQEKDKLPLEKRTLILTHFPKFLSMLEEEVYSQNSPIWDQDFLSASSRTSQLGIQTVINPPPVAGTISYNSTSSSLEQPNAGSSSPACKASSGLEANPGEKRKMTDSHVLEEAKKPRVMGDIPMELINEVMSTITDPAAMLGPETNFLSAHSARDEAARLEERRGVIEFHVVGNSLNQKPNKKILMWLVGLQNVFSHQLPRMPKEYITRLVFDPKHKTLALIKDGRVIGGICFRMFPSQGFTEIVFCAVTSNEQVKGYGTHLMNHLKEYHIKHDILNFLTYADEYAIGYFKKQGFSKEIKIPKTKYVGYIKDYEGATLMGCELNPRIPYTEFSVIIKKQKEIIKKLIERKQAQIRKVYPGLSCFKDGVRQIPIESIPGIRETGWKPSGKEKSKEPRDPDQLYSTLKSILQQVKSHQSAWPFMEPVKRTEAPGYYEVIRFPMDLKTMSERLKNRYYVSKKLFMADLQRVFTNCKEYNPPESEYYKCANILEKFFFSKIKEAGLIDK

CC1=NN(c2ccc(C(=O)O)cc2)C(=O)/C1=C/c1ccc(-c2cc(C)c(C)cc2[N+](=O)[O-])o1 [Compound 1, C646]
% inhibition, PCAF (PCAF; [3]): < 10% | IC50 (p300/CBP): […] | Absorption max (nm) (Absorbance spectra): 405 nm | Absorbance counter-screen (Absorbance spectra): Flagged (Significant absorbance was defined as molar absorptivity constants greater than 2000 M^−1 cm^−1 at wavelengths greater than 300 nm) | Molar absorptivity (Absorbance spectra): 18000 M⁻¹ cm⁻¹ | % inhibition, GCN5 (GCN5; [3]): < 10% | UPLC-MS buffer stability counter-screen [1]: Gross degradation observed; loss of parent peak, appearance of new peaks | Fluorescence counter-screen [2]: Negative | activity vs. the five tested HATs (five tested HATs): potent inhibition of at least one HAT

O=c1c2cccnc2sn1Cc1ccc(C(F)(F)F)cc1 [Compound 3, PU141]
IC50 (PCAF; H4 peptide substrate, ref 7 (Supplementary References)): 35.5 µM | Absorption max (nm) (Absorbance spectra): 315 nm | Absorbance counter-screen (Absorbance spectra): Flagged (Significant absorbance was defined as molar absorptivity constants greater than 2000 M^−1 cm^−1 at wavelengths greater than 300 nm) | Molar absorptivity (Absorbance spectra): 2700 M⁻¹ cm⁻¹ | UPLC-MS buffer stability counter-screen [1]: Grossly stable | Fluorescence counter-screen [2]: Flagged (Significant autofluorescence was defined as compounds with FECs greater than 100 nM at any compound concentration) | Fluorophore interference ([2]; fluorophore settings with autofluorescence): 4MU, AlexaFluor 350 | activity vs. the five tested HATs (five tested HATs): minimal activity

Cc1cc(O)cc(C)c1C=C1C(=O)N(Cc2ccccc2)C(=O)N(Cc2ccccc2)C1=O [Compound 4, EML425]
Absorption max (nm) (Absorbance spectra): 425 nm | Absorbance counter-screen (Absorbance spectra): Flagged (Significant absorbance was defined as molar absorptivity constants greater than 2000 M^−1 cm^−1 at wavelengths greater than 300 nm) | Molar absorptivity (Absorbance spectra): 2700 M⁻¹ cm⁻¹ | IC50 (CBP): 1.1 µM | UPLC-MS buffer stability counter-screen [1]: Grossly stable | Fluorescence counter-screen [2]: Negative | activity vs. the five tested HATs (five tested HATs): potent inhibition of at least one HAT

COc1ccc(S(=O)(=O)ON=C2C=C(C)C(=O)C(C)=C2)cc1 [Compound 5, L002]
% inhibition, Tip60 (Tip60): 2% | Absorption max (nm) (Absorbance spectra): 290 nm | Absorbance counter-screen (Absorbance spectra): Negative | % inhibition, CBP (CBP; @ 100 µM, ref 9 (Supplementary References)): 32% | IC50 (GCN5; HotSpot assay, ref 9 (Supplementary References)): 33.9 µM | UPLC-MS buffer stability counter-screen [1]: Gross degradation observed; loss of parent peak | Fluorescence counter-screen [2]: Negative

O=C(O[C@@H]1Cc2c(O)cc(O)cc2O[C@@H]1c1cc(O)c(O)c(O)c1)c1cc(O)c(O)c(O)c1 [Compound 10, (-)-Epigallocatechin gallate]
IC50 (Tip60; original report, 24 (Supplementary References)): 70 µM | Absorption max (nm) (Absorbance spectra): 290 nm | Absorbance counter-screen (Absorbance spectra): Negative | IC50 (CBP): 50 µM | UPLC-MS buffer stability counter-screen [1]: Gross degradation observed; loss of parent peak, appearance of new peaks | Fluorescence counter-screen [2]: Negative

O=C1/C(=C/c2ccc(O)c(Br)c2)CCC/C1=C\c1ccc(O)c(Br)c1 [Compound 12, HAT inhibitor II]
% inhibition, PCAF (PCAF; [4]): < 1% | IC50 (p300/CBP): 5 µM | Absorption max (nm) (Absorbance spectra): 355 nm | Absorbance counter-screen (Absorbance spectra): Flagged (Significant absorbance was defined as molar absorptivity constants greater than 2000 M^−1 cm^−1 at wavelengths greater than 300 nm) | Molar absorptivity (Absorbance spectra): 5100 M⁻¹ cm⁻¹ | % inhibition, GCN5 (GCN5; [4]): 30% | UPLC-MS buffer stability counter-screen [1]: Gross degradation observed; loss of parent peak | Fluorescence counter-screen [2]: Negative | activity vs. the five tested HATs (five tested HATs): potent inhibition of at least one HAT

Cc1cc2c(C(C)C)c(O)c(O)c(C=O)c2c(O)c1-c1c(C)cc2c(C(C)C)c(O)c(O)c(C=O)c2c1O [Compound 16, Gossypol]
IC50 (PCAF; [5]): ~50 µM | % inhibition, Tip60 (Tip60): < 10% | Absorption max (nm) (Absorbance spectra): 385 nm | Absorbance counter-screen (Absorbance spectra): Flagged (Significant absorbance was defined as molar absorptivity constants greater than 2000 M^−1 cm^−1 at wavelengths greater than 300 nm) | Molar absorptivity (Absorbance spectra): 22000 M⁻¹ cm⁻¹ | IC50 (CBP): ~25 µM | Fluorescence counter-screen [2]: Negative

COc1ccc(/C(Cl)=C(/C=O)c2ccc(OC)cc2)cc1 [Compound 18, Windorphen]
IC50 (PCAF; [5]): > 100 µM | Absorption max (nm) (Absorbance spectra): 345 nm | Absorbance counter-screen (Absorbance spectra): Flagged (Significant absorbance was defined as molar absorptivity constants greater than 2000 M^−1 cm^−1 at wavelengths greater than 300 nm) | Molar absorptivity (Absorbance spectra): 4300 M⁻¹ cm⁻¹ | IC50 (CBP): 51.3 µM | IC50 (GCN5; original report, 22 (Supplementary References)): > 100 µM | UPLC-MS buffer stability counter-screen [1]: Grossly stable | Fluorescence counter-screen [2]: Negative | activity vs. the five tested HATs (five tested HATs): minimal activity

Garcinol [Compound 13]
IC50 (p300/CBP): 5 µM | Absorption max (nm) (Absorbance spectra): 290 nm | Absorbance counter-screen (Absorbance spectra): Negative | Fluorescence counter-screen [2]: Negative | activity vs. the five tested HATs (five tested HATs): potent inhibition of at least one HAT
